This note sets out measurements from patent EP0478631B1, “TARGETTING AGENTS” (CANCER RESEARCH CAMPAIGN TECHNOLOGY LTD., priority 1989, dated 1991).

This assay deals with Cloudman S91. Nature of the assay: Tyrosinase activity in vitro (release of tritiated water from 3,5-3H-tyrosine). In kind it is cell-based. The note with it: molar concentration giving a response equal to half the maximum; tyrosinase activity relative to melanotropin-free control; Cloudman S91 monolayers, 24 h + further 24 h with 3,5-³H-tyrosine; read-out: EC₅₀. The method, then: Cloudman S91 were grown in monolayers to a density of approximately 25,000 cells cm⁻² in 25cm² culture flasks using 4 ml Ham's F10 medium supplemented with 10% heat inactivated foetal calf serum. The medium was replaced and 10⁻⁵ and 10⁻⁹ molar concentrations of the test or control compound added. After 24 h, medium and melantropins were renewed and 1»Ci, 3,5-³H-tyrosine included. The final specific activity of 3,5-³H-tyrosine incubation medium was 0.1 Ci/mmol.
After a further 24h, 0.2ml of the medium from each incubation were transferred to centrifuge tubes containing 1ml activated charcoal suspension (100 mg/ml in 0.1M citric acid). The tubes were vortexed and centrifuged at 700 x g for 5 min. Aliquots (0.5 ml) of each supernatant were transferred to scintillation vials and counted on a Packard Tri-Carb 300D scintillation counter. Aliquots (0.1ml) of the unextracted medium were also counted. Finally, the remaining medium was removed and the cell monolayer suspended in 1ml isotonic trypsin/EDTA. The dispersed cells were counted in a Coulter counter.
The amount of water generated from the tyrosine per 10⁵ cells was calculated and the results divided by the value obtained from the melanotropin-free control. The activities of the melanotropins were expressed as the molar concentrations required to give responses equal to half the maximum (EC₅₀) and are recorded in Table 1.

Consider `CCCC[C@H](NC(C)=O)C(=O)N[C@@H](CC(=O)O)C(=O)N[C@@H](Cc1c[nH]cn1)C(=O)N[C@H](Cc1ccccc1)C(=O)N[C@@H](CCCNC(=N)N)C(=O)N[C@@H](Cc1c[nH]c2ccccc12)C(=O)N[C@@H](CCCCN)C(N)=O` [MSH(4-10), Ac-[Nle⁴, Asp⁵, D-Phe⁷, Lys¹⁰] α-MSH₄₋₁₀-NH₂], for which the EC50 turned out to be 0.74 nM.

As for “alpha-melanocyte stimulating hormone [MSH]”, the EC50 is 2.81 nM.
